Data: US10434199B2, “Picolinate cross-bridged cyclams, chelates with metallic cations and use thereof” (UNIVERSITÉ DE BRETAGNE OCCIDENTALE, priority 2013, dated 2019)

Columns and labels:
[1] = Potentiometric titrations: stability constants and pM of Cu^2+ complexes; assay type: physicochemical
Experimental: Equipment and work conditions. The potentiometric setup has been described in Roger, M. et al. Inorg. […] Ligand solutions were prepared at about 2.0×10^−3 M, and the Cu^2+ and Zn^2+ solutions at ca. 0.05 M from analytical grade nitrate salts and standardized by complexometric titrations with H4edta (ethylenediaminetetraacetic acid). Sample solutions for titration contained approximately 0.04 mmol of ligand in a volume of 30 mL where the ionic strength was kept at 0.10 M using KNO3 as background electrolyte. Metal cations were added at 0.9 equiv. of the ligand amount in complexation titrations. Batch titrations were prepared in a similar way but with each titration point corresponding to 1/10 of the amount of a conventional titration sample.
Measurements. All measurements were carried out at 25.0±0.1° C. under inert atmosphere. The electromotive force of the sample solutions was measured after calibration of the electrodes by titration of a standard HNO3 solution at 2.0×10^−3 M in the work conditions. The [H^+] of the solutions was determined by measurement of the electromotive force of the cell, E=E^o′+Q log [H^+]+Ej. The term pH is defined as −log [H^+]. E^o′ and Q were determined from the acid region of the calibration curves. Deviations from the Nernst law at very low pH (pH<2.5) were corrected with the VLpH software (Calibration software from the maker of Hyperquad available for free at http://www.hyperquad.co.uk/), which performs a [H^+] correction based on a very low pH calibration procedure.
Calculations. The potentiometric data were refined with the Hyperquad software, and speciation diagrams were plotted using the HySS software. The overall equilibrium constants βi^H and βMmHhL1 are defined by βMmHhL1=[MmHhLl]/[M]^m[H]^h[L]^l (βi^H=[HhLl]/[H]^h[L]^l and βML-1L=βML(OH)×Kw). Differences in log units between the values of protonated (or hydrolysed) and non-protonated constants provide the stepwise (log K) reaction constants (being KMmHhL1=[MmHhLl]/[MmHh-1Ll][H]). The errors quoted are the standard deviations calculated by the fitting program from all the experimental data for each system.
The stability constants of the complexes formed by Hcb-te1pa with Cu^2+ and Zn^2+ were determined by potentiometric titrations in aqueous solution at 25.0° C. in 0.10 M KNO3 ionic strength (Table 2).
During titrations, each experimental point included a supplementary equilibration time in order to yield fully stabilized measurements. […] For this reason, batch titrations were prepared in the range of pH=4-6 and were left to equilibrate until full stabilization, while conventional titrations were used for the remaining pH regions.
For a correct comparison of the thermodynamic stability of the complexes of Hcb-te1pa with the corresponding values of other ligands from the literature, the pM values that take into account the variable basicity properties of different ligands were also calculated (Table 3). […] The thermodynamic stability is not the only important criterion to determine the efficiency of metal complexation because, depending on the application, other factors such as kinetic inertness or in vivo stability can be more important.

[2] = Cyclic voltammetry of the copper(II) complexes; assay type: physicochemical; conditions: overview table
Experimental: Cyclic voltammograms were measured using Autolab equipment at room temperature. All measurements were made using a three-electrode system: a glassy-carbon electrode as a working electrode, a platinum wire as a counter-electrode, and a saturated calomel reference electrode. All electrochemical experiments were performed in ca. 1 mM aqueous solutions of preformed complex under a N2 atmosphere containing 0.1 M NaClO4 as the supporting electrolyte. From the initial potential of the analysis (0 V), the voltage was ramped to −1.3 V, then to 0.2 V, and back to 0 V at a scan rate of 100 mV/s. All potentials are expressed relative to the saturated calomel electrode (SCE) except otherwise noted.
One of the explanations for the dissociation of copper(II) complexes of macrocyclic ligands in biological media is the metal reduction to copper(I) followed by the demetallation of the complex. It is thus important to ensure the electrochemical inertness as well as the reversibility of the redox system. To determine the redox behavior of the copper complex of Hcb-te1pa, cyclic voltammetry experiments were performed in aqueous solution at pH values of 2.3 and 6.8. The experiments were carried out with a glassy-carbon working electrode in solutions containing 0.1 M NaClO4 as supporting electrolyte.

Q: For `O=C(O)c1cccc(CN2CCCN3CCNCCCN(CC3)CC2)n1` [Hcb-te1pa, 6-(1,4,8,11-tetraazabicyclo[6.6.2]hexadecan-4-ylmethyl)picolinic acid], which “log KMLHh, Cu^2+ + L ⇌ CuL” value ([1]; 25.0° C., I = 0.10M KNO3) is on record?
A: Its value is 26.00 log units.

Q: And the “log βMLHh, Cu^2+ + L ⇌ CuL” value ([1]; 25.0° C., I = 0.10M KNO3)?
A: The value was 26.00(5) log units.

Q: And the “b) thermodynamic stability: log K[CuL]” value ([1]; overview table)?
A: The value was 26.00.

Q: And the “b) thermodynamic stability: pCu” value ([1]; overview table, calculated pM)?
A: The value was 15.67.

Q: And the “Calculated pM, Cu^2+” value ([1]; pH = 7.4, 100% excess of ligand, [M^2+]tot = 1 × 10^−5 M)?
A: Its value is 15.67.

Q: What about the “e) stability upon reduction, Cu(II) -> Cu (I): reduction potential” value [2] of the same molecule?
A: The value was −0.696 V.

Q: And the “e) stability upon reduction, Cu(II) -> Cu (I): reversibility” value [2]?
A: Its value is “reversible”.
